Reference: patent US20160296529A1, “AMINOTRIAZOLOPYRIDINE FOR USE IN THE TREATMENT OF INFLAMMATION, AND PHARMACEUTICAL COMPOSITIONS THEREOF” (priority 2012, published 2016)

What was measured:
[1] = Target inhibition: circulating levels in healthy volunteers as multiples of whole blood assay IC50; assay type: in vivo, human
Description: The compound according to Formula II was dosed daily in healthy volunteers at 200 mg QD and 100 mg BID.
The resulting levels of Formula II and Formula I were then measured and plotted (FIG. 5) as multiples of their respective IC50 as determined by the Whole Blood assay described above in Example 3.4.

rat CIA model = assay: CIA model 2 (rat collagen induced arthritis, ankle diameter); assay type: in vivo, Female Lewis rats
Text: Female Lewis rats (n=76) that weighed 165-194 grams (mean approx. 178 g) on arthritis day 0 were obtained from Charles River Laboratories, Inc., Wilmington, Mass., (ref#393739). Animals were identified by a distinct number at the base of the tail delineating group and animal number.
Upon arrival, animals were housed 4/cage in shoe-box polycarbonate cages and acclimated for 8 days prior to being immunized with type II collagen. No concurrent medications were given.
During the acclimation and study periods, animals were housed in a laboratory environment with temperatures ranging 19-25° […]. and relative humidity of 30%-70%. Automatic timers provided 12 h of light and 12 h of dark. Animals were allowed access ad libitum to food and water.
Acclimated female Lewis rats were anesthetized with Isoflurane and receive subcutaneous/intradermal (SC/ID) injections with 300 μL of Freund's Incomplete Adjuvant (Difco, Detroit, Mich.) containing 2 mg/mL bovine type II collagen (Elastin Products, Owensville, Mo.) at the base of the tail and 2 sites on the back on day −9 and on day −3.
Collagen was prepared by making a 4 mg/mL solution in 0.01N Acetic acid. Equal volumes of collagen and Freund's incomplete adjuvant, were emulsified by hand mixing until a bead of this material holds its form when placed in water. Each animal received 300 μL of the mixture on each occasion divided over 3 subcutaneous sites on back.
On study day 1, onset of arthritis occurred and animals were randomized into treatment groups. After randomization, all cages were labelled with protocol number, group number, and animal numbers. Randomization into each group was done after ankle joint swelling was obviously established and there was good evidence of bilateral disease.
Animals with established type II collagen arthritis were treated daily (QD) by the oral (PO) route for 13 days with vehicle (methylcellulose 0.5% (w/v)), or with active compound(s) prepared in methylcellulose, 0.5% (w/v). Oral dosing was initiated on arthritis day 1 and continued daily (QD at 24 h intervals) through day 13. Animals were terminated on arthritis day 14.
The severity of the arthritis was evaluated by measuring the diameter of both ankles on the animals. Caliper measurements of ankles were taken every day beginning on day 0, with a Digitrix II micrometer (Fowler & NSK). Baseline measurements were taken using one ankle with values rounded to one-thousandth of an inch. Measurements were confirmed as clinically normal (0.260-0.264 in) by comparison with historical values for rats based on a range of body weights. Baseline measurements were then applied to both ankles, and these values remain with the animal so long as the ankle was clinically normal with good definition of all the ankle bones and no evidence of inflammation. Animals were terminated on day 14.

With `O=C(Nc1nc2cccc(-c3ccc(CN4CCS(=O)(=O)CC4)cc3)n2n1)C1CC1` [Formula II, Cyclopropanecarboxylic acid {5-[4-(1,1-dioxo-thiomorpholin-4-ylmethyl)-phenyl]-[1,2,4]triazolo[1,5-a]pyridin-2-yl}-amide] the “Ratio [blood circulating dose]/[circulating dose at IC50 quantity]” value (“Ratio” for short) ([1]; Formula II at 100 mg BID, time point 0 h) was 0.09, the “Ratio” value ([1]; Formula II at 100 mg BID, time point 0.5 h) was 0.12 and the “Ratio” value ([1]; Formula II at 100 mg BID, time point 1 h) was 0.48. For the same compound, the “Ratio” value ([1]; Formula II at 100 mg BID, time point 2 h) was 1.28, the “Ratio” value ([1]; Formula II at 100 mg BID, time point 3 h) was 1.71 and the “Ratio” value ([1]; Formula II at 100 mg BID, time point 5 h) was 0.88. For the same compound, the “Ratio” value ([1]; Formula II at 100 mg BID, time point 8 h) was 0.26, the “Ratio” value ([1]; Formula II at 100 mg BID, time point 12 h) was 0.09 and the “Ratio” value ([1]; Formula II at 100 mg BID, time point 12.5 h) was 0.12. For the same compound, the “Ratio” value ([1]; Formula II at 100 mg BID, time point 13 h) was 0.48, the “Ratio” value ([1]; Formula II at 100 mg BID, time point 14 h) was 1.28 and the “Ratio” value ([1]; Formula II at 100 mg BID, time point 15 h) was 1.71. The “Ratio” value ([1]; Formula II at 100 mg BID, time point 17 h) was 0.88, the “Ratio” value ([1]; Formula II at 100 mg BID, time point 20 h) was 0.26 and the “Ratio” value ([1]; Formula II at 100 mg BID, time point 24 h) was 0.09. The “Ratio” value ([1]; Formula II at 200 mg QD, time point 0 h) was 0.02, the “Ratio” value ([1]; Formula II at 200 mg QD, time point 0.5 h) was 0.46 and the “Ratio” value ([1]; Formula II at 200 mg QD, time point 1 h) was 3.14. The “Ratio” value ([1]; Formula II at 200 mg QD, time point 2 h) was 3.88, the “Ratio” value ([1]; Formula II at 200 mg QD, time point 3 h) was 3.16 and the “Ratio” value ([1]; Formula II at 200 mg QD, time point 5 h) was 1.31. The “Ratio” value ([1]; Formula II at 200 mg QD, time point 8 h) was 0.36, the “Ratio” value ([1]; Formula II at 200 mg QD, time point 24 h) was 0.11 and the ankle diameter (rat CIA model; group C: Formula II 1 mg/kg PO QD, day 0) was 0.2625 inches. For the same compound, the ankle diameter (rat CIA model; group C: Formula II 1 mg/kg PO QD, day 1) was 0.2716 inches, the ankle diameter (rat CIA model; group C: Formula II 1 mg/kg PO QD, day 2) was 0.2755 inches and the ankle diameter (rat CIA model; group C: Formula II 1 mg/kg PO QD, day 3) was 0.2869 inches. It also gave an ankle diameter (rat CIA model; group C: Formula II 1 mg/kg PO QD, day 4) of 0.2990 inches, an ankle diameter (rat CIA model; group C: Formula II 1 mg/kg PO QD, day 5) of 0.3106 inches and an ankle diameter (rat CIA model; group C: Formula II 1 mg/kg PO QD, day 6) of 0.3231 inches. For the same compound, the ankle diameter (rat CIA model; group C: Formula II 1 mg/kg PO QD, day 7) was 0.3296 inches, the ankle diameter (rat CIA model; group C: Formula II 1 mg/kg PO QD, day 8) was 0.3291 inches and the ankle diameter (rat CIA model; group C: Formula II 1 mg/kg PO QD, day 9) was 0.3268 inches. It also gave an ankle diameter (rat CIA model; group C: Formula II 1 mg/kg PO QD, day 10) of 0.3270 inches, an ankle diameter (rat CIA model; group C: Formula II 1 mg/kg PO QD, day 11) of 0.3185 inches and an ankle diameter (rat CIA model; group C: Formula II 1 mg/kg PO QD, day 12) of 0.3178 inches. For the same compound, the ankle diameter (rat CIA model; group C: Formula II 1 mg/kg PO QD, day 13) was 0.3185 inches, the ankle diameter (rat CIA model; group C: Formula II 1 mg/kg PO QD, day 14) was 0.3226 inches and the ankle diameter (rat CIA model; group D: Formula II 3 mg/kg PO QD, day 0) was 0.2623 inches. It also gave an ankle diameter (rat CIA model; group D: Formula II 3 mg/kg PO QD, day 1) of 0.2718 inches, an ankle diameter (rat CIA model; group D: Formula II 3 mg/kg PO QD, day 2) of 0.2755 inches and an ankle diameter (rat CIA model; group D: Formula II 3 mg/kg PO QD, day 3) of 0.2869 inches. It also gave an ankle diameter (rat CIA model; group D: Formula II 3 mg/kg PO QD, day 4) of 0.2957 inches, an ankle diameter (rat CIA model; group D: Formula II 3 mg/kg PO QD, day 5) of 0.3058 inches and an ankle diameter (rat CIA model; group D: Formula II 3 mg/kg PO QD, day 6) of 0.3168 inches. The ankle diameter (rat CIA model; group D: Formula II 3 mg/kg PO QD, day 7) was 0.3205 inches, the ankle diameter (rat CIA model; group D: Formula II 3 mg/kg PO QD, day 8) was 0.3259 inches and the ankle diameter (rat CIA model; group D: Formula II 3 mg/kg PO QD, day 9) was 0.3216 inches. For the same compound, the ankle diameter (rat CIA model; group D: Formula II 3 mg/kg PO QD, day 10) was 0.3197 inches, the ankle diameter (rat CIA model; group D: Formula II 3 mg/kg PO QD, day 11) was 0.3156 inches and the ankle diameter (rat CIA model; group D: Formula II 3 mg/kg PO QD, day 12) was 0.3165 inches. For the same compound, the ankle diameter (rat CIA model; group D: Formula II 3 mg/kg PO QD, day 13) was 0.3175 inches, the ankle diameter (rat CIA model; group D: Formula II 3 mg/kg PO QD, day 14) was 0.3174 inches and the “significance to vehicle control (ANOVA) in the CIA second model” value (rat CIA model; group E: Formula II 10 mg/kg PO QD) was “mg/kg (*) (((*) = p ≦ 0.05 ANOVA to vehicle control))”. The ankle diameter (rat CIA model; group E: Formula II 10 mg/kg PO QD, day 0) was 0.2626 inches, the ankle diameter (rat CIA model; group E: Formula II 10 mg/kg PO QD, day 1) was 0.2718 inches and the ankle diameter (rat CIA model; group E: Formula II 10 mg/kg PO QD, day 2) was 0.2744 inches. For the same compound, the ankle diameter (rat CIA model; group E: Formula II 10 mg/kg PO QD, day 3) was 0.2808 inches, the ankle diameter (rat CIA model; group E: Formula II 10 mg/kg PO QD, day 4) was 0.2850 inches and the ankle diameter (rat CIA model; group E: Formula II 10 mg/kg PO QD, day 5) was 0.2921 inches. The ankle diameter (rat CIA model; group E: Formula II 10 mg/kg PO QD, day 6) was 0.3000 inches, the ankle diameter (rat CIA model; group E: Formula II 10 mg/kg PO QD, day 7) was 0.3031 inches and the ankle diameter (rat CIA model; group E: Formula II 10 mg/kg PO QD, day 8) was 0.3108 inches. The ankle diameter (rat CIA model; group E: Formula II 10 mg/kg PO QD, day 9) was 0.3119 inches, the ankle diameter (rat CIA model; group E: Formula II 10 mg/kg PO QD, day 10) was 0.3122 inches and the ankle diameter (rat CIA model; group E: Formula II 10 mg/kg PO QD, day 11) was 0.3090 inches. It also gave an ankle diameter (rat CIA model; group E: Formula II 10 mg/kg PO QD, day 12) of 0.3070 inches, an ankle diameter (rat CIA model; group E: Formula II 10 mg/kg PO QD, day 13) of 0.3069 inches and an ankle diameter (rat CIA model; group E: Formula II 10 mg/kg PO QD, day 14) of 0.3066 inches. For the same compound, the “significance to vehicle control (ANOVA) in the CIA second model” value (rat CIA model; group F: Formula II 30 mg/kg PO QD) was “mg/kg (*) (((*) = p ≦ 0.05 ANOVA to vehicle control))”, the ankle diameter (rat CIA model; group F: Formula II 30 mg/kg PO QD, day 0) was 0.2620 inches and the ankle diameter (rat CIA model; group F: Formula II 30 mg/kg PO QD, day 1) was 0.2718 inches. It also gave an ankle diameter (rat CIA model; group F: Formula II 30 mg/kg PO QD, day 2) of 0.2679 inches, an ankle diameter (rat CIA model; group F: Formula II 30 mg/kg PO QD, day 3) of 0.2683 inches and an ankle diameter (rat CIA model; group F: Formula II 30 mg/kg PO QD, day 4) of 0.2708 inches. It also gave an ankle diameter (rat CIA model; group F: Formula II 30 mg/kg PO QD, day 5) of 0.2698 inches, an ankle diameter (rat CIA model; group F: Formula II 30 mg/kg PO QD, day 6) of 0.2696 inches and an ankle diameter (rat CIA model; group F: Formula II 30 mg/kg PO QD, day 7) of 0.2706 inches. The ankle diameter (rat CIA model; group F: Formula II 30 mg/kg PO QD, day 8) was 0.2741 inches, the ankle diameter (rat CIA model; group F: Formula II 30 mg/kg PO QD, day 9) was 0.2721 inches and the ankle diameter (rat CIA model; group F: Formula II 30 mg/kg PO QD, day 10) was 0.2706 inches. For the same compound, the ankle diameter (rat CIA model; group F: Formula II 30 mg/kg PO QD, day 11) was 0.2711 inches, the ankle diameter (rat CIA model; group F: Formula II 30 mg/kg PO QD, day 12) was 0.2685 inches and the ankle diameter (rat CIA model; group F: Formula II 30 mg/kg PO QD, day 13) was 0.2684 inches. The ankle diameter (rat CIA model; group F: Formula II 30 mg/kg PO QD, day 14) was 0.2679 inches.
